In patent US20230414581A1, “SARM1 ENZYME ACTIVITY INHIBITOR AND USE THEREOF IN NEURODEGENERATIVE DISEASES” (ARTIVILA BIOPHARMA, priority 2020, published 2023):

Assays:
dN-SARM1 [1] = biological target: T1, dN-SARM1 (Homo sapiens (Human), UniProt Q6SZW1); assay: In vitro biochemical test of inhibiting SARM1 enzyme activity (IC50), PC6 fluorescence method; conditions: dN-SARM1 0.05 μg/ml; 50 μM NAD, 50 μM PC6, 50 μM NMN activator; 10 min pre-incubation
Procedure: First, 200 μM of the compound was added to a 50 mM Tris-HCl (pH 7.5) solution containing 0.05 μg/ml dN-SARM1. Then half of the mixture was added to an equal volume of 50 mM Tris-HCl (pH 7.5) solution containing 0.05 μg/ml dN-SARM1 (pH 7.5) for mixing. The drug was diluted 6 times by analogy to final concentrations of 200, 100, 50, 25, 12.5, 6.25, 3.125 μM, or 200, 50, 12.5, 3.125, 0.78, 0.195, 0.049 μM. The solution without addition of inhibitor was control group. The above solutions were incubated at room temperature for 10 min.
(§1) Then 50 μM NAD, 50 μM PC6 as substrate and 50 μM NMN as activator were added to the dN-SARM1 protein incubated with inhibitor for 30 min of reaction at room temperature. The concentration of each component was the final concentration in the reaction system.
(§2) During the reaction process, PC6 fluorescence spectrum kinetics was detected by a microplate reader at an excitation wavelength and an emission wavelength of 390 nm and 520 nm, respectively. Finally, the activity of the protein was denoted by the reaction rate, and the half-inhibition concentration was calculated. The higher the reaction rate, the stronger the protein activity, and the lower the inhibition efficiency of the compound.

dN-SARM1 [2] = biological target: T1, dN-SARM1; assay: In vitro biochemical test of inhibiting SARM1 enzyme activity (% inhibition rate), PC6 fluorescence method; conditions: 50 μM compound; 0.05 μg/ml dN-SARM1; 50 μM NAD, 50 μM PC6, 50 μM NMN activator; 30 min room temperature
Procedure: The compounds were detected by PC6 fluorescence method [Chinese patent 202010528147.3] with the dN-SARM1 protein obtained in “Expression and purification of SARM1 protein” and “(4) Protein extraction” in Example 4 above.
as §1, with “First, 0.05 μg/ml dN-SARM1 and 50 μM compound were incubated in 50 mM Tris-HCl (pH 7.5) solution for 10 min. Then” for “Then”, “the drug” for “inhibitor”
as §2, with “rate.” for “rate, and the half-inhibition concentration was calculated.”

[3] = biological target: SARM1 in iSARM1 (HEK293) cells (Homo sapiens (Human), UniProt Q6SZW1); assay: Inhibition of SARM1 activity in cell line with inducible overexpression of SARM1 (intracellular cADPR level); format: cell-based; conditions: 50 μM inhibitor, 100 μM CZ-48 activator, 16 h, cADPR content
Chain of SARM1 in iSARM1 (HEK293) cells (Q6SZW1 28-724): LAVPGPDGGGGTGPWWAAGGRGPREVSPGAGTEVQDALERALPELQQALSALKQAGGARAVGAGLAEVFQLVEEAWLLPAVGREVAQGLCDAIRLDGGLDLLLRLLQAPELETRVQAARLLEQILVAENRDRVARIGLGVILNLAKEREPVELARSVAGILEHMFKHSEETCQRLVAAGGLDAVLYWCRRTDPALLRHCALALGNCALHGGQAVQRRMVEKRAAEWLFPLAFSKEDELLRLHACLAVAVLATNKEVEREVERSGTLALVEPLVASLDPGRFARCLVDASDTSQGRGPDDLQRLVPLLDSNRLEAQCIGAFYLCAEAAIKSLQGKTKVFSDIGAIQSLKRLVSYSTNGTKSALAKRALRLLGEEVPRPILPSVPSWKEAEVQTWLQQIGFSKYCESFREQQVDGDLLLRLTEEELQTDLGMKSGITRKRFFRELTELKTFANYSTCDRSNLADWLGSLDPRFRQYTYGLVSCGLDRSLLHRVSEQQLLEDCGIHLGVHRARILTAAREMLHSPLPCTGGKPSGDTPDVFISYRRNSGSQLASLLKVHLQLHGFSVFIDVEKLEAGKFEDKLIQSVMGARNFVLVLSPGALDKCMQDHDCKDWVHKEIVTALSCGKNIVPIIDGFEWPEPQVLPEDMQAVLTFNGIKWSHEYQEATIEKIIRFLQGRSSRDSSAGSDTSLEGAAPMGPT
Procedure: Firstly, a 96-well culture dish was treated with 0.05 mg/ml polylysine for 5 min, and washed once with PBS. 3×10^4 iSARM1 (HEK293) cells were plated into the 96-well plate and cultured in a 37° C. and 5% incubator overnight. The next day, the cells were added with an inhibitor with a final concentration of 50 μM, cultured in the incubator for 1.5 h, then added with the activator CZ-48 with a final concentration of 100 μM, and co-cultured for 16 h. In addition, a control group without addition of CZ-48 or drug was set up. Finally, the intracellular cADPR level was detected to denote the activity of SARM1, and the inhibition rate of SARM1 by 50 μM inhibitor in cells was calculated.
The cADPR assay was conducted as follows. First, the cells were washed once with PBS, and added with 150 μl of pre-cooled 0.6M perchloric acid (PCA) for rapid lysis of the cells and precipitation of proteins. […]
The content of cADPR in the solution was determined by Cycling analysis, which was operated as follows. […] Each well of the 96-well plate was added with the reaction solution containing or not containing cyclase for reaction, and the reaction kinetic curve within 30 min (Ex:Em=544/599) was recorded. The average slope of the reaction was calculated, and the accurate cADPR content was calculated by converting the cADPR standard. […]

T1 sequence (Q6SZW1 28-724): as above

In the case of `Cn1sc(=O)n(Cc2ccccc2)c1=O` [Compound 1], the IC50 (dN-SARM1 [1]) is reported as < 1 µM.

With `Cc1ccc(-n2sc(=O)n(Cc3ccc(F)cc3)c2=O)cc1` [Compound 6] the IC50 (dN-SARM1 [1]) was < 1 µM.

In the case of `N#Cc1c(Cl)cc(Cl)cc1Sc1cc(Cl)cc(Cl)c1O` [Compound 36], the “Inhibition rate of enzyme activity” value (dN-SARM1 [2]) is reported as 98.5% and the IC50 (dN-SARM1 [1]) is reported as > 10 µM.

For `Cc1cccc(Cl)c1-n1sc(=O)n(CC2CC2)c1=O` [Compound 4], the IC50 (dN-SARM1 [1]) was < 1 µM.

For `Cn1c(=O)sn(-c2cccc3ccccc23)c1=O` [Compound 3], the IC50 (dN-SARM1 [1]) was < 1 µM.

In the case of `O=C(CCCCCCNC(=O)c1cnc(N(c2ccccc2)c2ccccc2)nc1)NO` [Compound 43], the “Inhibition rate of enzyme activity” value (dN-SARM1 [2]) is reported as 85.3% and the IC50 (dN-SARM1 [1]) is reported as > 10 µM.

With `O=C(CCCCCCC(=O)Nc1ccccc1)NO` [Compound 40] the “Inhibition rate of enzyme activity” value (dN-SARM1 [2]) was 75.6%.

With `Oc1cc(Cl)ccc1Oc1ccc(Cl)cc1Cl` [Compound 35] the “Inhibition rate of enzyme activity” value (dN-SARM1 [2]) was 102% and the IC50 (dN-SARM1 [1]) was > 10 µM.

`CCn1c(=O)/c(=C2\Sc3ccccc3N2C)s/c1=C\c1cccc[n+]1CC` [Compound 39] gave an IC50 (dN-SARM1 [1]) of 1 to 10 µM.

With `O=C(C=Cc1cccc(S(=O)(=O)Nc2ccccc2)c1)NO` [Compound 42] the “Inhibition rate of enzyme activity” value (dN-SARM1 [2]) was 67.4%.

With `N#Cc1ccc(Cl)cc1Cc1cc(Cl)ccc1C#N` [Compound 32] the “Inhibition rate of enzyme activity” value (dN-SARM1 [2]) was 93.7% and the IC50 (dN-SARM1 [1]) was > 10 µM.

For `O=c1sn(-c2cccc3ccccc23)c(=O)n1Cc1ccccc1` [Compound 7], the “Inhibition rate of enzyme activity” value (dN-SARM1 [2]) was 98.6% and the IC50 (dN-SARM1 [1]) was < 1 µM.

`CCN(CC)C(=S)SSC(=S)N(CC)CC` [Compound 37] was tested, and the “Inhibition rate of enzyme activity” value (dN-SARM1 [2]) was 101% and the IC50 (dN-SARM1 [1]) was < 1 µM.

`O=C(/C=C/c1ccc(CNCCc2c(O)[nH]c3ccccc23)cc1)NO` [Compound 41] was tested, and the “Inhibition rate of enzyme activity” value (dN-SARM1 [2]) was 67.3%.

`CC(C)c1ccc(-n2c(=O)sn(-c3ccc(SC(F)(F)F)cc3)c2=O)cc1` [Compound 8] showed an IC50 (dN-SARM1 [1]) of 1 to 10 µM.

With `O=c1sn(-c2ccccc2C(F)(F)F)c(=O)n1CC1CC1` [Compound 2] the IC50 (dN-SARM1 [1]) was < 1 µM and the Inhibition rate [3] was “B (B: 25-50%)”.
